In assay [1] the target is T1, Arabidopsis HPPD (SEQ ID NO:53) (Arabidopsis thaliana, UniProt P93836).
T1 construct: His6 (N); made in house; host or cells: E. coli BL21 (DE3)
T1 sequence (P93836 1-445): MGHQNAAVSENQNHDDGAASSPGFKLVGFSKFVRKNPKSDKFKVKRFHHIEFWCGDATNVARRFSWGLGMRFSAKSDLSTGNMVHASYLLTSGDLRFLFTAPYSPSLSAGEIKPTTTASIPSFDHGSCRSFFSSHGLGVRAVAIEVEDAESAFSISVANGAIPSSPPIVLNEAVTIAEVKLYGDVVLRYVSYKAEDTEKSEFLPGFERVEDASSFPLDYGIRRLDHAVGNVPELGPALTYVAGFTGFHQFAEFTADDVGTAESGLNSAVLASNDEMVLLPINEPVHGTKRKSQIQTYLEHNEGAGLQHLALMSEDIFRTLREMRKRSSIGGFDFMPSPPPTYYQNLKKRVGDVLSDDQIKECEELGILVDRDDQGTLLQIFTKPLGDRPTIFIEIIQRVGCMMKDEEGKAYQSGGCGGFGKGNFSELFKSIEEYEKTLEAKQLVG
The experiment in a line: HPPD activity assay (HPLC of homogentisic acid). It counts as biochemical. To be noted: Arabidopsis HPPD. The method, then:
(§1) The activity assay for HPPD is based on the analysis of homogentisic acid by reversed phase HPLC.
(§2) The assay mixture can contain 150 mM potassium phosphate buffer pH 7.0, 50 mM L-ascorbic acid, 100 μM Catalase (Sigma-Aldrich), 1 μM FeSO4 and 0.2 units of purified HPPD enzyme in a total volume of 505 μl. 1 unit is defined as the amount of enzyme that is required to produce 1 nmol of HGA per minute at 20° C.
(§3) The reaction is allowed to proceed for 45 min at room temperature. The reaction is stopped by the addition of 50 μl of 4.5 M phosphoric acid. The sample is filtered using a […] pore size PVDF filtration device. 5 μl of the cleared sample is analyzed on an UPLC HSS T3 column (particle size 1.8 μm, dimensions 2, 1×50 mm; Waters) by isocratic elution using 90% 20 mM NaH2PO4 pH 2.2, 10% methanol (v/v).
(§4) HGA is detected electrochemically at 750 mV (mode: DC; polarity: positive) and quantified by integrating peak areas (Empower software; Waters).
(§5) Inhibitors are dissolved in DMSO (dimethylsulfoxide) to a concentration of 0.5 mM. From this stock solution serial five-fold dilutions are prepared in DMSO, which are used in the assay. The respective inhibitor solution accounts for 1% of the assay volume. Thus, final inhibitor concentrations range from 5 μM to 320 pM, respectively. Activities are normalized by setting the uninhibited enzyme activity to 100%. IC50 values are calculated using non-linear regression.
(§6) Using methods which are described in the above examples or well known in the art, purified recombinant wild-type HPPD enzymes are characterized with respect to their kinetic properties and sensitivity towards HPPD inhibiting herbicides. Apparent michaelis constants (Km) and maximal reaction velocities (Vmax) are calculated by non-linear regression with the software GraphPad Prism 5 (GraphPad Software, La Jolla, USA) using a substrate inhibition model. […] Weighted means (by standard error) of Km and IC50 values are calculated from at least three independent experiments. The Cheng-Prusoff equation for competitive inhibition (Cheng, Y. C.; Prusoff, W. H. Biochem Pharmacol 1973, 22, 3099-3108) is used to calculate dissociation constants (Ki).
(§7) Field performance of the HPPD enzyme, which is used as a herbicide tolerance trait may depend not only on its lack of sensitivity towards HPPD inhibiting herbicides but also on its activity. To assess the potential performance of a herbicide tolerance trait a tolerance index (TI) is calculated using the following formula: […]
(§8) Easy comparison and ranking of each trait is enabled by normalizing tolerance indexes on Arabidopsis wild-type HPPD.

The target in assay [2] is T2, Hordeum HPPD (SEQ ID NO:2) (Hordeum vulgare, UniProt O48604, A164G/R146V/R147D/R148G).
T2 construct: His-tag (N); made in house; host or cells: E. coli BL21 (DE3)
Nature of the assay: HPPD activity assay. It counts as biochemical. To be noted: Hordeum HPPD. The method, then: as §1, §2, §3, §4, §5, §6, §7, §8

[3] abbreviates: turnover number, substrate 4-HPP.
[4] abbreviates: read-out: Km [μM] (4-HPP), apparent michaelis constant.

T2 sequence (O48604 whole entry R146V/R147D/R148G/A164G): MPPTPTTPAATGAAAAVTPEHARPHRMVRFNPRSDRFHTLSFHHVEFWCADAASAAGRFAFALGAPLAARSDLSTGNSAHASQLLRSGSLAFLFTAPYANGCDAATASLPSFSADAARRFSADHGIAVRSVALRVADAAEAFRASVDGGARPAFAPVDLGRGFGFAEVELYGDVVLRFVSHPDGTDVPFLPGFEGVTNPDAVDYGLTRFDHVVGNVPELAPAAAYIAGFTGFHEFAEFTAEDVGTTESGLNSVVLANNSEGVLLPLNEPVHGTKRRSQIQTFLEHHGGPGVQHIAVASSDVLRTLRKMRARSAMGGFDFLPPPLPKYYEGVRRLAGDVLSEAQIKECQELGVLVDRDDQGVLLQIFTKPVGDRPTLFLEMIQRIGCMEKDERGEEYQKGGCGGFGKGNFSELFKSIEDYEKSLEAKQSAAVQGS

As to `O=C(O)C(=O)Cc1ccc(O)cc1` [Inhibitor 4-HPP, 4-hydroxyphenylpyruvate], the results for the “kcat” value in assay [1] (setting [3]) and in assay [2] (setting [3]) were 12.9 s⁻¹ and 11.5 s⁻¹, respectively. In addition, the Km came out at 13 µM in assay [1] (setting [4]) and 26 µM in assay [2] (setting [4]).

As a reminder, the kcat is the maximal rate divided by the concentration of active sites. What is called Km is the concentration of substrate that gives half-maximal velocity.

(Values after US12065654B2, “Plants having increased tolerance to herbicides” (BASF SE, priority 2014, dated 2024).)
